Results taken from the NIST ThermoML archive (doi:10.1007/s10765-009-0602-6).

Assay: molar heat capacity at constant volume; xn = mol fraction of the nth substance listed
Conditions: x1 = 0.2607

N [ammonia] + O
Conditions | molar heat capacity at constant volume [J/K/mol]
597.59 K, Fluid (supercritical or subcritical phases), Mass density=342.18 kg/m3, isochoric heat capacity | 106.69
597.6 K, Fluid (supercritical or subcritical phases), Mass density=160.07 kg/m3, isochoric heat capacity | 66.86
597.67 K, Fluid (supercritical or subcritical phases), Mass density=342.18 kg/m3, isochoric heat capacity | 101.08
597.68 K, Fluid (supercritical or subcritical phases), Mass density=376.89 kg/m3, isochoric heat capacity | 88.28
597.69 K, Fluid (supercritical or subcritical phases), Mass density=160.07 kg/m3, isochoric heat capacity | 65.49
597.76 K, Fluid (supercritical or subcritical phases), Mass density=342.18 kg/m3, isochoric heat capacity | 93.62
597.85 K, Fluid (supercritical or subcritical phases), Mass density=342.18 kg/m3, isochoric heat capacity | 99.13
597.93 K, Fluid (supercritical or subcritical phases), Mass density=342.18 kg/m3, isochoric heat capacity | 94.33
597.93 K, Fluid (supercritical or subcritical phases), Mass density=376.89 kg/m3, isochoric heat capacity | 82.42
598.02 K, Fluid (supercritical or subcritical phases), Mass density=342.18 kg/m3, isochoric heat capacity | 93.02
598.28 K, Fluid (supercritical or subcritical phases), Mass density=376.89 kg/m3, isochoric heat capacity | 83.59
598.33 K, Fluid (supercritical or subcritical phases), Mass density=329 kg/m3, isochoric heat capacity | 117.38
598.33 K, Liquid, Isochoric heat capacity | 117.38
598.45 K, Fluid (supercritical or subcritical phases), Mass density=329 kg/m3, isochoric heat capacity | 113.21
598.54 K, Fluid (supercritical or subcritical phases), Mass density=329 kg/m3, isochoric heat capacity | 109.57
598.71 K, Fluid (supercritical or subcritical phases), Mass density=329 kg/m3, isochoric heat capacity | 102.77
598.96 K, Fluid (supercritical or subcritical phases), Mass density=320.33 kg/m3, isochoric heat capacity | 120.79
598.96 K, Liquid, Isochoric heat capacity | 120.79
598.97 K, Fluid (supercritical or subcritical phases), Mass density=376.89 kg/m3, isochoric heat capacity | 81.57
598.98 K, Fluid (supercritical or subcritical phases), Mass density=160.07 kg/m3, isochoric heat capacity | 58.27
599.05 K, Fluid (supercritical or subcritical phases), Mass density=320.33 kg/m3, isochoric heat capacity | 119.07
599.05 K, Fluid (supercritical or subcritical phases), Mass density=329 kg/m3, isochoric heat capacity | 107.4
599.12 K, Fluid (supercritical or subcritical phases), Mass density=160.07 kg/m3, isochoric heat capacity | 56.88
599.14 K, Fluid (supercritical or subcritical phases), Mass density=320.33 kg/m3, isochoric heat capacity | 116.6
599.22 K, Fluid (supercritical or subcritical phases), Mass density=320.33 kg/m3, isochoric heat capacity | 116.48
599.22 K, Fluid (supercritical or subcritical phases), Mass density=329 kg/m3, isochoric heat capacity | 100.28
599.24 K, Fluid (supercritical or subcritical phases), Mass density=160.07 kg/m3, isochoric heat capacity | 59.53
599.28 K, Fluid (supercritical or subcritical phases), Mass density=160.07 kg/m3, isochoric heat capacity | 57.43
599.31 K, Fluid (supercritical or subcritical phases), Mass density=320.33 kg/m3, isochoric heat capacity | 114.22
599.31 K, Fluid (supercritical or subcritical phases), Mass density=329 kg/m3, isochoric heat capacity | 97.19
599.31 K, Fluid (supercritical or subcritical phases), Mass density=456.58 kg/m3, isochoric heat capacity | 67.32
599.39 K, Fluid (supercritical or subcritical phases), Mass density=320.33 kg/m3, isochoric heat capacity | 116.94
599.42 K, Fluid (supercritical or subcritical phases), Mass density=312.91 kg/m3, isochoric heat capacity | 124.13
599.42 K, Liquid, Isochoric heat capacity | 124.13
599.48 K, Fluid (supercritical or subcritical phases), Mass density=312.91 kg/m3, isochoric heat capacity | 116.5
599.48 K, Fluid (supercritical or subcritical phases), Mass density=456.58 kg/m3, isochoric heat capacity | 66.88
599.57 K, Fluid (supercritical or subcritical phases), Mass density=311.19 kg/m3, isochoric heat capacity | 125.38
599.57 K, Fluid (supercritical or subcritical phases), Mass density=312.91 kg/m3, isochoric heat capacity | 107.92
599.57 K, Liquid, Isochoric heat capacity | 125.38
599.63 K, Fluid (supercritical or subcritical phases), Mass density=311.19 kg/m3, isochoric heat capacity | 116.92
599.65 K, Fluid (supercritical or subcritical phases), Mass density=312.91 kg/m3, isochoric heat capacity | 98.79
599.65 K, Fluid (supercritical or subcritical phases), Mass density=456.58 kg/m3, isochoric heat capacity | 66.45
599.67 K, Fluid (supercritical or subcritical phases), Mass density=309.95 kg/m3, isochoric heat capacity | 126.26
599.67 K, Liquid, Isochoric heat capacity | 126.26
599.74 K, Fluid (supercritical or subcritical phases), Mass density=309.95 kg/m3, isochoric heat capacity | 122.91
599.74 K, Fluid (supercritical or subcritical phases), Mass density=311.19 kg/m3, isochoric heat capacity | 119.75
599.74 K, Fluid (supercritical or subcritical phases), Mass density=312.91 kg/m3, isochoric heat capacity | 95.52
599.78 K, Fluid (supercritical or subcritical phases), Mass density=308.35 kg/m3, isochoric heat capacity | 124.13
599.78 K, Fluid (supercritical or subcritical phases), Mass density=309.95 kg/m3, isochoric heat capacity | 120.4
599.78 K, Liquid, Isochoric heat capacity | 124.13
599.82 K, Fluid (supercritical or subcritical phases), Mass density=309.95 kg/m3, isochoric heat capacity | 110.51
599.82 K, Fluid (supercritical or subcritical phases), Mass density=311.19 kg/m3, isochoric heat capacity | 114.13
599.82 K, Fluid (supercritical or subcritical phases), Mass density=456.58 kg/m3, isochoric heat capacity | 66.86
599.89 K, Fluid (supercritical or subcritical phases), Mass density=307.35 kg/m3, isochoric heat capacity | 121.11
599.89 K, Liquid, Isochoric heat capacity | 121.11
599.91 K, Fluid (supercritical or subcritical phases), Mass density=308.35 kg/m3, isochoric heat capacity | 117.6
599.91 K, Fluid (supercritical or subcritical phases), Mass density=309.95 kg/m3, isochoric heat capacity | 104.19
599.99 K, Fluid (supercritical or subcritical phases), Mass density=307.35 kg/m3, isochoric heat capacity | 117.17
599.99 K, Fluid (supercritical or subcritical phases), Mass density=308.35 kg/m3, isochoric heat capacity | 105.88
599.99 K, Fluid (supercritical or subcritical phases), Mass density=309.95 kg/m3, isochoric heat capacity | 102.57
599.99 K, Fluid (supercritical or subcritical phases), Mass density=312.91 kg/m3, isochoric heat capacity | 91.51
600.02 K, Fluid (supercritical or subcritical phases), Mass density=305.44 kg/m3, isochoric heat capacity | 119.52
600.02 K, Liquid, Isochoric heat capacity | 119.52
600.08 K, Fluid (supercritical or subcritical phases), Mass density=305.44 kg/m3, isochoric heat capacity | 116.14
600.08 K, Fluid (supercritical or subcritical phases), Mass density=307.35 kg/m3, isochoric heat capacity | 103.34
600.08 K, Fluid (supercritical or subcritical phases), Mass density=308.35 kg/m3, isochoric heat capacity | 100.97
600.16 K, Fluid (supercritical or subcritical phases), Mass density=307.35 kg/m3, isochoric heat capacity | 101.06
600.17 K, Fluid (supercritical or subcritical phases), Mass density=303.47 kg/m3, isochoric heat capacity | 117.74
600.17 K, Fluid (supercritical or subcritical phases), Mass density=305.44 kg/m3, isochoric heat capacity | 107.85
600.17 K, Fluid (supercritical or subcritical phases), Mass density=308.35 kg/m3, isochoric heat capacity | 93.64
600.17 K, Liquid, Isochoric heat capacity | 118.63
600.25 K, Fluid (supercritical or subcritical phases), Mass density=303.47 kg/m3, isochoric heat capacity | 110.49
600.25 K, Fluid (supercritical or subcritical phases), Mass density=305.44 kg/m3, isochoric heat capacity | 102.54
600.29 K, Fluid (supercritical or subcritical phases), Mass density=301.94 kg/m3, isochoric heat capacity | 117.56
600.29 K, Liquid, Isochoric heat capacity | 117.56
600.33 K, Fluid (supercritical or subcritical phases), Mass density=301.94 kg/m3, isochoric heat capacity | 111.7
600.34 K, Fluid (supercritical or subcritical phases), Mass density=303.47 kg/m3, isochoric heat capacity | 104.01
600.34 K, Fluid (supercritical or subcritical phases), Mass density=305.44 kg/m3, isochoric heat capacity | 105.13
600.35 K, Fluid (supercritical or subcritical phases), Mass density=309.95 kg/m3, isochoric heat capacity | 100.02
600.42 K, Fluid (supercritical or subcritical phases), Mass density=303.47 kg/m3, isochoric heat capacity | 98.88
600.42 K, Fluid (supercritical or subcritical phases), Mass density=305.44 kg/m3, isochoric heat capacity | 97.9
